Reference: PubChem BioAssay (NCI)
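Assay format: 96-well plates, 48-hour exposure. TGI marks complete inhibition of growth.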

How the values were obtained:
Experiment in all cases: DTP human tumour cell line panel, 48 h
NCI-H23 lung = test system: NCI-H23 lung
SF-295 CNS = test system: SF-295 CNS
SN12C renal = test system: SN12C renal
SNB-19 CNS = test system: SNB-19 CNS
MOLT-4 leukemia = test system: MOLT-4 leukemia
DLD-1 colon = test system: DLD-1 colon
LOX IMVI melanoma = test system: LOX IMVI melanoma
SK-MEL-5 melanoma = test system: SK-MEL-5 melanoma
SF-539 CNS = test system: SF-539 CNS
NCI-H460 lung = test system: NCI-H460 lung
RPMI-8226 leukemia = test system: RPMI-8226 leukemia
IGROV1 ovarian = test system: IGROV1 ovarian
MALME-3M melanoma = test system: MALME-3M melanoma
KM20L2 colon = test system: KM20L2 colon
HT29 colon = test system: HT29 colon
HOP-62 NSCLC = test system: HOP-62 NSCLC
KM12 colon = test system: KM12 colon
TK-10 renal = test system: TK-10 renal
A498 renal = test system: A498 renal
LXFL 529 NSCLC = test system: LXFL 529 NSCLC
SK-OV-3 ovarian = test system: SK-OV-3 ovarian
OVCAR-5 ovarian = test system: OVCAR-5 ovarian
UACC-257 melanoma = test system: UACC-257 melanoma
U251 CNS = test system: U251 CNS
SK-MEL-28 melanoma = test system: SK-MEL-28 melanoma
OVCAR-3 ovarian = test system: OVCAR-3 ovarian
HCT-15 colon = test system: HCT-15 colon
CCRF-CEM leukemia = test system: CCRF-CEM leukemia
COLO 205 colon = test system: COLO 205 colon
UO-31 renal = test system: UO-31 renal
M19-MEL melanoma = test system: M19-MEL melanoma
OVCAR-8 ovarian = test system: OVCAR-8 ovarian
M14 melanoma = test system: M14 melanoma
ACHN renal = test system: ACHN renal
DMS 273 small cell lung = test system: DMS 273 small cell lung
SK-MEL-2 melanoma = test system: SK-MEL-2 melanoma
SNB-78 CNS = test system: SNB-78 CNS
EKVX NSCLC = test system: EKVX NSCLC
K-562 leukemia = test system: K-562 leukemia
DMS 114 small cell lung = test system: DMS 114 small cell lung
A549 NSCLC = test system: A549 NSCLC
CAKI-1 renal = test system: CAKI-1 renal
OVCAR-4 ovarian = test system: OVCAR-4 ovarian
SNB-75 CNS = test system: SNB-75 CNS
UACC-62 melanoma = test system: UACC-62 melanoma
786-0 renal = test system: 786-0 renal
SW-620 colon = test system: SW-620 colon
XF 498 CNS = test system: XF 498 CNS
SF-268 CNS = test system: SF-268 CNS
HCC-2998 colon = test system: HCC-2998 colon
HCT-116 colon = test system: HCT-116 colon
NCI-H226 lung = test system: NCI-H226 lung
HL-60(TB) leukemia = test system: HL-60(TB) leukemia
RXF 393 renal = test system: RXF 393 renal

## CCc1cccc(C(C)CC)c1NC(=O)CC1C(=O)Nc2ccccc2S1(=O)=O (configuration not stated)
NCI-H23 lung
  TGI: 40.1 µM
SF-295 CNS
  TGI: > 100 µM
SN12C renal
  TGI: > 100 µM
SNB-19 CNS
  TGI: > 100 µM
MOLT-4 leukemia
  TGI: 41.5 µM
DLD-1 colon
  TGI: 33.2 µM
LOX IMVI melanoma
  TGI: 39.9 µM
SK-MEL-5 melanoma
  TGI: > 100 µM
SF-539 CNS
  TGI: 52.1 µM
NCI-H460 lung
  TGI: > 100 µM
RPMI-8226 leukemia
  TGI: 43.3 µM
IGROV1 ovarian
  TGI: > 100 µM
MALME-3M melanoma
  TGI: > 100 µM
KM20L2 colon
  TGI: > 100 µM
HT29 colon
  TGI: 47.9 µM
HOP-62 NSCLC
  TGI: > 100 µM
KM12 colon
  TGI: 40.5 µM
TK-10 renal
  TGI: 84.5 µM
A498 renal
  TGI: 72.6 µM
LXFL 529 NSCLC
  TGI: 24.5 µM
SK-OV-3 ovarian
  TGI: 99.2 µM
OVCAR-5 ovarian
  TGI: > 100 µM
UACC-257 melanoma
  TGI: > 100 µM
U251 CNS
  TGI: > 100 µM
SK-MEL-28 melanoma
  TGI: > 100 µM
OVCAR-3 ovarian
  TGI: 38.2 µM
HCT-15 colon
  TGI: 48.7 µM
CCRF-CEM leukemia
  TGI: 30.5 µM
COLO 205 colon
  TGI: 44.5 µM
UO-31 renal
  TGI: 96.2 µM
M19-MEL melanoma
  TGI: > 100 µM
OVCAR-8 ovarian
  TGI: 15.9 µM
M14 melanoma
  TGI: > 100 µM
ACHN renal
  TGI: > 100 µM
DMS 273 small cell lung
  TGI: 71.3 µM
SK-MEL-2 melanoma
  TGI: > 100 µM
SNB-78 CNS
  TGI: 65.5 µM
EKVX NSCLC
  TGI: 44.3 µM
K-562 leukemia
  TGI: 28.5 µM
DMS 114 small cell lung
  TGI: 39.2 µM
A549 NSCLC
  TGI: 70 µM
CAKI-1 renal
  TGI: 40.2 µM
OVCAR-4 ovarian
  TGI: 39.9 µM
SNB-75 CNS
  TGI: 94.6 µM
UACC-62 melanoma
  TGI: > 100 µM
786-0 renal
  TGI: 33.6 µM
SW-620 colon
  TGI: 28.7 µM
XF 498 CNS
  TGI: > 100 µM
SF-268 CNS
  TGI: > 100 µM
HCC-2998 colon
  TGI: 22.1 µM

## CC(=O)O[C@H]1CC[C@@]2(C)C(=CC[C@@H]3C2CC[C@]2(C)Nc4c(cnn4-c4ccccc4)CC32)C1 (some centres not stated)
NCI-H23 lung
  TGI: > 100 µM
SF-295 CNS
  TGI: 8.52 µM
DLD-1 colon
  TGI: > 100 µM
SK-MEL-5 melanoma
  TGI: > 100 µM
SF-539 CNS
  TGI: 9.12 µM
NCI-H460 lung
  TGI: > 100 µM
HCT-116 colon
  TGI: > 100 µM
RPMI-8226 leukemia
  TGI: 6.62 µM
IGROV1 ovarian
  TGI: > 100 µM
MALME-3M melanoma
  TGI: > 100 µM
NCI-H226 lung
  TGI: > 100 µM
KM20L2 colon
  TGI: > 100 µM
HT29 colon
  TGI: > 100 µM
HL-60(TB) leukemia
  TGI: > 100 µM
HOP-62 NSCLC
  TGI: 63.9 µM
KM12 colon
  TGI: 69.8 µM
TK-10 renal
  TGI: > 100 µM
A498 renal
  TGI: 51.9 µM
LXFL 529 NSCLC
  TGI: > 100 µM
SK-OV-3 ovarian
  TGI: > 100 µM
OVCAR-5 ovarian
  TGI: > 100 µM
UACC-257 melanoma
  TGI: > 100 µM
U251 CNS
  TGI: > 100 µM
SK-MEL-28 melanoma
  TGI: > 100 µM
OVCAR-3 ovarian
  TGI: > 100 µM
HCT-15 colon
  TGI: > 100 µM
CCRF-CEM leukemia
  TGI: > 100 µM
UO-31 renal
  TGI: 84 µM
M19-MEL melanoma
  TGI: > 100 µM
OVCAR-8 ovarian
  TGI: > 100 µM
M14 melanoma
  TGI: > 100 µM
ACHN renal
  TGI: > 100 µM
DMS 273 small cell lung
  TGI: 18.4 µM
SK-MEL-2 melanoma
  TGI: > 100 µM
SNB-78 CNS
  TGI: > 100 µM
EKVX NSCLC
  TGI: > 100 µM
DMS 114 small cell lung
  TGI: > 100 µM
A549 NSCLC
  TGI: > 100 µM
CAKI-1 renal
  TGI: > 100 µM
OVCAR-4 ovarian
  TGI: 66.9 µM
SNB-75 CNS
  TGI: 30.8 µM
UACC-62 melanoma
  TGI: > 100 µM
RXF 393 renal
  TGI: 42.2 µM
786-0 renal
  TGI: 36.6 µM
SW-620 colon
  TGI: > 100 µM
XF 498 CNS
  TGI: > 100 µM
HCC-2998 colon
  TGI: 70.8 µM
